Reference: patent US20070077583A1, “Alpha enolase-directed diagnostics and therapeutics for cancer and chemotherapeutic drug resistance” (Aurelium BioPharma, Inc., priority 2005, published 2007)
“Also recorded” adds a separate entry of the source. Read-outs that look alike come from different tables or passages of the source.

Experiments:
MCF-7 cells = assay: MTT cytotoxicity assay, MCF-7 cells transfected with α-enolase siRNA; type: cell-based, human
Method: For a typical siRNA transfection, 1 nmole of the annealed siRNA duplex was mixed with 1.4 ml of Opti-MEM reagent (Invitrogen). In another tube, […] of Oligofectamine reagent (Invitrogen, Carlsbad, Calif.) is mixed with […] of Opti-MEM. The two solutions are combined and mixed gently by inversion and incubated for 20 min. at RT. The resulting solution is added to the cultured cells drop by drop in a 10 cm dish (cells are approximately 40-50% confluent). The next day the transfected cells were trypsinized and seeded in 6 or 96-well plates and further incubated for the indicated amount of time (assay dependent) before further analysis.
To evaluate the effect of α-enolase depletion on the chemosensitivity of cells to cytotoxic agents, MTT assays were performed in breast adenocarcinoma MCF-7 cells transfected with α-enolase specific siRNAs. […] The predicted EC50 values (the effective dose of a compound responsible for a positive effect half-way between baseline and maximum net impact) for the α-enolase-depleted cells are shown in Table 3. Similarly, results using other chemotherapeutic drugs are also shown in the table indicating the sensitivity of breast cancer tissue to α-enolase depletion.

CaOV3 cells = assay: MTT cytotoxicity assay, CaOV3 cells transfected with α-enolase RNAi; type: cell-based, human; conditions: for EC50: Homo sapiens, 72 hours post transfection
Description: These observations were expanded by targeting α-enolase in the ovarian cancer cell line, CaOV3.

H460 cells = assay: MTT cytotoxicity assay, H460 cells transfected with α-enolase siRNA; type: cell-based, human
Method: To establish the effectiveness of α-enolase silencing on other cancer cell types, H460 non-small cell lung cancer cells were challenged with a chemotherapeutic drug, MTT cytotoxicity assays were carried out and survival curves plotted as shown in FIG. 17.

SW-480 cells = assay: cells; type: cell-based, human; conditions: SW-480 cells; for EC50: Homo sapiens, SW480
Method: The colorectal adenocarcinoma cell line SW-480 was treated with α-enolase-directed siRNA using the procedures described above.

MDA-435 cells = assay: cells; type: cell-based, human; conditions: MDA-435 cells; for EC50: Homo sapiens, MDA435
Method: Similar tests utilizing α-enolase siRNA were performed on MDA-435 breast adenocarcinoma cells. Chemosensitivity to various drugs was determined for the MDA-435 cells as described above.

PC-3 cells = assay: MTT cytotoxicity assay, PC-3 cells transfected with α-enolase siRNA; type: cell-based; conditions: for EC50: Homo sapiens
A549 cells [1] = assay: Clonogenic assay, A549 cells; type: cell-based, human; conditions: A549 cells vs control vectors
SKOV3 cells = assay: Cytotoxicity in α-enolase siRNA transfected SKOV3 cells; conditions: data not shown
A549 cells [2] = assay: MTT cytotoxicity assay, A549 cells transfected with α-enolase siRNA
Method: Small interfering RNA transfected cells were seeded in triplicate into 96-well plates at 5×10^3 cells/well 48 hrs post-transfection. The cells were incubated for an additional 16-24 hrs before they were exposed to increasing concentrations of cytotoxic drugs. […] Appropriate dilutions were made in the respective media for each cell line. Following addition of drugs, incubation was continued for an additional 72 hrs. Twenty-five ml of MTT dye (5 mg/ml) were added into each well and the plate was further incubated at 37° C. for 4 hrs. The dye was solubilized with 10% Triton X-100, 0.01 N HCl and further incubated at 37° C. in the dark for 30 min. Cell viability was determined by measure of absorption at 570 nm in a Wallac multiwell plate reader (PerkinElmer, Inc., Boston, Mass.). The averages of triplicate wells were plotted using the Prism software (GraphPad Software, Inc., San Diego, Calif.).
To investigate if α-enolase is broadly involved in mediating drug resistance to microtubule targeting agents, non-small cell lung cancer cell lines A549 and H460, respectively, were transfected with α-enolase siRNA and enolase expression and viability were assessed.

α-enolase = assay: Western blot of α-enolase protein expression after siRNA transfection; type: cell-based, human; conditions: MCF-7 cells
Method: Western blot analysis utilizing anti-α-enolase antibodies was performed on MOLT4 cell extracts fractionated on SDS-PAGE (FIG. 3). Cells extract were prepared according to the protocol detailed in Example 1. […] Resolved proteins were electrophoretically transferred onto nitrocellulose membranes (Hybond, Amercham Pharmacia Biotech) for 1 hour. […] After blocking the membranes with 5% non-fat milk in 1×PBS overnight at 4° C., all antibody-binding reactions were performed in 5% non-fat milk in 1×PBS for 2 hours at room temperature for primary antibodies and for 1 hour for secondary antibodies coupled to HRP. The signal was detected by the Supersignal west Pico chemiluminescent substrate (Pierce, Rockford, Ill., USA). Two polyclonal antibodies against α-enolase were used: a goat antibody against human α-enolase (Santa Cruz Biotechology, Inc., Santa Cruz, Calif.); rabbit polyclonal antibody against human α-enolase (NNE) (MorphoSys AG, Munich, Del.). Membranes were subsequently blotted with anti-GAPDH (Novus Biologicals, Inc., Littleton, Colo.) or anti-prohibitin mouse monoclonal antibody (Lab Vision Corp., Fremont, Calif.) as controls for protein loading. To establish the importance of α-enolase to the expression of the drug-resistant phenotype in cell lines, α-enolase expression was silenced using RNAi. Briefly, the following siRNA duplexes targeting the human α-enolase mRNA were designed and purchased either from Ambion (Austin, Tex.) or Invitrogen (Carlsbad, Calif.). […] [NT] ID NO: 2) targeting the mRNA sequence corresponding to nucleotides […] from the start of the transcript (Ref Seq ID number: NM-001428). […] In another tube, […] of Oligofectamine reagent (Invitrogen, Carlsbad, Calif.) is mixed with […] of Opti-MEM. The two solutions are combined and mixed gently by inversion and incubated for 20 min. at RT. […] The next day the transfected cells were trypsinized and seeded in 6 or 96-well plates and further incubated for the indicated amount of time (assay dependent) before further analysis.

[3] = Homo sapiens, MCF7, MCF-7 cells, control siRNA, 72 hrs drug, read-out: Control (EC50)
[4] = Homo sapiens, MCF7, MCF-7 cells, α-enolase specific siRNA, read-out: α-Enolase (EC50)
[5] = Caov-3, control, read-out: Control (EC50)
[6] = Caov-3, α-enolase specific RNAi, read-out: α-Enolase (EC50)
[7] = Homo sapiens, NCI-H460, control, read-out: Control (EC50)
[8] = Homo sapiens, NCI-H460, α-enolase specific siRNA, read-out: α-Enolase (EC50)
[9] = control, read-out: Control (EC50)
[10] = α-enolase specific siRNA, read-out: α-Enolase (EC50)
[11] = Eno-1 siRNA, read-out: Eno-1 (EC50)
[12] = Eno-1 stealth siRNA, read-out: Eno-1 ST (EC50)
[13] = control siRNA, read-out: Control (EC50)
[14] = mock transfection, read-out: Mock (EC50)
[15] = Homo sapiens, A549, read-out: Control (EC50)
[16] = Homo sapiens, A549, read-out: α-Enolase (EC50)

| Compound | EC50 (MCF-7 cells; [3]) | EC50 (MCF-7 cells; [4]) | viability of α-enolase-silenced cells under drug treatment vs control cells (H460 cells) | EC50 (H460 cells; [7]) | EC50 (H460 cells; [8]) | EC50 (MDA-435 cells; [11]) | EC50 (MDA-435 cells; [12]) | EC50 (MDA-435 cells; [13]) | EC50 (MDA-435 cells; [14]) | EC50 (PC-3 cells; [9]) | EC50 (PC-3 cells; [10]) | EC50 (A549 cells [2]; [15]) | EC50 (A549 cells [2]; [16]) | chemosensitivity of α-enolase-silenced cells (words) (A549 cells [2]; A549 cells) | other results |
| --- | --- | --- | --- | --- | --- | --- | --- | --- | --- | --- | --- | --- | --- | --- | --- |
| CC[C@]1(O)C[C@H]2CN(CCc3c([nH]c4ccccc34)[C@@](C(=O)OC)(c3cc4c(cc3OC)N(C=O)[C@H]3[C@@](O)(C(=O)OC)[C@H](OC(C)=O)[C@]5(CC)C=CCN6CC[C@]43[C@@H]65)C2)C1 [Vincristine] | 163000 nM | 12600 nM | decreased the viability | 4.96 nM | 2.03 nM | 0.375 nM | 0.324 nM | 0.246 nM | 0.667 nM | 3400 nM | 1690 nM | 83.3 nM | 20 nM |  | IC50 (MCF-7 cells; Homo sapiens, MCF7, MCF-7 cells, from MTT experiments): 0.25 nM; sensitivity of α-enolase silenced cells (MCF-7 cells; MCF-7 cells): substantial increase in their sensitivity; IC10 (MCF-7 cells; MCF-7 cells, from MTT experiments): 0.005 nM; EC50 lower in α-enolase-depleted cells vs control siRNA treated cells (MCF-7 cells; MCF-7 cells, on average): 12 fold; decrease of chemotherapeutic drug resistance by α-enolase-directed siRNA vs mock siRNA (CaOV3 cells): 6 fold; EC50 (CaOV3 cells; [5]): 0.084 nM; EC50 (CaOV3 cells; [6]): 0.0108 nM; EC50 (SW-480 cells; [9]): 45.8 nM; EC50 (SW-480 cells; [10]): 0.221 nM; more sensitive, enolase-depleted vs mock transfected cells (SW-480 cells): approximately 210 times; chemosensitivity of α-enolase-depleted cells (words) (SW-480 cells; listed as vincristin): greater chemosensitivity; chemosensitivity of α-enolase-depleted cells (words) (SW-480 cells; listed as vincristine): greatly enhanced chemosensitivity; sensitivity of α-enolase siRNA cells in clonogenic assay (A549 cells [1]): more sensitive; cytotoxic effect in α-enolase-depleted cells (SKOV3 cells): enhanced cytotoxic effect; chemosensitivity of α-enolase-silenced cells (words) (A549 cells [2]; A549 cells, listed as vincristin): significant shifts in their chemosensitivities; chemosensitivity of α-enolase-silenced cells (words) (A549 cells [2]; A549 cells, listed as vincristine): enhanced chemosensitivity |
| O=C1c2c(O)ccc(O)c2C(=O)c2c(NCCNCCO)ccc(NCCNCCO)c21 [Mitoxantrone] | 8680 nM | 7820 nM | decreased the viability | 224 nM | 70.8 nM |  |  |  |  |  |  | 136 nM | 88.8 nM | increased sensitivity |  |
| VEGF-directed siRNA: chemically modified Stealth siRNA duplex targeting VEGF, SEQ ID NO: 8 and 9 (chain 1 ACAAAUGUGAAUGCAGACCAAAGAA; chain 2 UUCUUUGGUCUGCAUUCACAUUUGU; chemically modified Stealth duplex, pattern not given here) |  |  |  |  |  |  |  |  |  |  |  |  |  |  | decrease of α-enolase expression (α-enolase): ~100% |
| CC(=O)O[C@@]12CO[C@@H]1C[C@H](O)[C@@]1(C)C(=O)[C@H](O)C3=C(C)[C@@H](OC(=O)[C@H](O)[C@@H](NC(=O)OC(C)(C)C)c4ccccc4)C[C@@](O)([C@@H](OC(=O)c4ccccc4)[C@H]21)C3(C)C [Docetaxel] | 73.5 nM | 36.5 nM | decreased the viability | 1.36 nM | 0.663 nM | 0.182 nM | 0.124 nM | 0.645 nM | 0.226 nM | 0.348 nM | 0.0547 nM | 7.01 nM | 0.351 nM | enhanced chemosensitivity; also recorded: significant shifts in their chemosensitivities | sensitivity of α-enolase-silenced cells (MDA-435 cells): Increases in sensitivity |
| CC[C@]1(O)C[C@@H]2CN(CCc3c([nH]c4ccccc34)[C@@](C(=O)OC)(c3cc4c(cc3OC)N(C)[C@H]3[C@@](O)(C(=O)OC)[C@H](OC(C)=O)[C@]5(CC)C=CCN6CC[C@]43[C@@H]65)C2)C1 [Vinblastin] |  |  | decreased the viability | 3.09 nM | 1.54 nM | 0.872 nM | 0.917 nM | 0.709 nM | 1.04 nM | 0.0529 nM | 0.00553 nM | 2.39 nM | 0.076 nM | enhanced chemosensitivity | decrease of chemotherapeutic drug resistance by α-enolase-directed siRNA vs mock siRNA (CaOV3 cells): 8 fold; EC50 (CaOV3 cells; [5]): 0.022 nM; EC50 (CaOV3 cells; [6]): 0.00349 nM; combination with enolase siRNA in cell killing (PC-3 cells; listed as vinblastine): synergistic; also recorded: augment PC-3 cell killing; chemosensitivity of α-enolase-silenced cells (words) (A549 cells [2]; A549 cells, listed as vinblastine): significant shifts in their chemosensitivities |
| N[C@@H](Cc1ccc(N(CCCl)CCCl)cc1)C(=O)O [Melphalan] |  |  |  |  |  |  |  |  |  |  |  |  |  |  | EC50 (MCF-7 cells; Homo sapiens, MCF7, 72 h, read-out: Control (EC50)): 14700 nM; EC50 (MCF-7 cells; Homo sapiens, MCF7, read-out: α-Enolase (EC50)): 11500 nM |
| N.N.[Cl][Pt][Cl] [Cisplatinum] |  |  | decreased the viability |  |  |  |  |  |  |  |  |  |  |  | EC50 (MCF-7 cells; MCF-7 cells, control siRNA, 72 hrs drug, read-out: Control (EC50)): 118000 nM; EC50 (MCF-7 cells; MCF-7 cells, α-enolase specific siRNA, read-out: α-Enolase (EC50)): 92000 nM; EC50 (H460 cells; [9]): 44.4 nM; EC50 (H460 cells; [10]): 24 nM; EC50 (A549 cells [2]; read-out: Control (EC50), A549 cells, control siRNA): 327000 nM; EC50 (A549 cells [2]; read-out: α-Enolase (EC50), A549 cells, α-enolase specific siRNA): 218000 nM |
| COc1cc([C@@H]2c3cc4c(cc3[C@@H](O[C@@H]3O[C@@H]5CO[C@@H](C)O[C@H]5[C@H](O)[C@H]3O)[C@H]3COC(=O)[C@H]23)OCO4)cc(OC)c1O [Etoposide] | 16100 nM | 27000 nM | decreased the viability | 5370 nM | 1910 nM |  |  |  |  |  |  | 20500 nM | 10100 nM | increased sensitivity |  |
| COc1cccc2c1C(=O)c1c(O)c3c(c(O)c1C2=O)C[C@@](O)(C(=O)CO)C[C@@H]3O[C@H]1C[C@H](N)[C@H](O)[C@H](C)O1 [Doxorubicin] | 90600 nM | 62600 nM | greatest decreases in viability | 119 nM | 30 nM |  |  |  |  |  |  | 289 nM | 297 nM |  |  |
